Measured values as given in US10815237B2, “Antimicrobials and methods of making and using same” (BIOVERSYS AG, priority 2016, dated 2020).

Key:
[1] = tested on: Staphylococcus aureus (S. aureus) 11540 strain; experiment: standard microdilution MIC, S. aureus; type: cell-based; conditions: for MIC: Staphylococcus aureus
Method: (§1) The in vitro activity of the compounds of the present disclosure can be determined. Antimicrobial testing is typically performed to determine the minimum inhibitory concentration (MIC). Minimum inhibitory concentrations (MICs) are determined by the microdilution method in a final volume of 100 μl according to protocols outlined by The Clinical and Laboratory Standards Institute (CLSI). Performance standards for reference strains are assessed within the same experimental design to maintain quality control. See, for example, Clinical Laboratory Standards Institute: Methods for dilution antimicrobial susceptibility tests for bacteria that grow aerobically M7-A8. Approved Standard-Eighth Edition. Wayne, Pa.: CLSI; December 2008; and Clinical Laboratory Standards Institute: Performance Standards for Antimicrobial Susceptibility Testing M100-S20; Approved Standard-Twentieth Edition. Wayne, Pa.: CLSI; June 2010.
(§2) The compounds of the present disclosure were tested for antimicrobial activity. The Compounds 1-23 were run against Eschericia coli (E. coli) strain ATCC25922 and against Staphylococcus aureus (S. aureus) 11540 strain using a standard microdilution assay to determine minimum inhibitory concentrations (MICs). […] It will be recognized by one skilled in the art that the compounds can be assessed against other bacterial organisms and that the presentation of data for activity against Eschericia coli and Staphylococcus aureus are illustrative and in no way is intended to limit the scope of the present disclosure. The compounds of the present disclosure can be assayed against a range of other microorganisms depending upon the performance activity desired to be gathered. Furthermore, the “+” and “−” representation and the selection of a cutoff value of 16 micrograms/mL is also illustrative and in no way is intended to limit the scope of the present disclosure.

[2] = tested on: Eschericia coli (E. coli) strain ATCC25922; experiment: standard microdilution MIC, E. coli; type: cell-based, Escherichia coli; conditions: for MIC: Escherichia coli
Method: as §1, §2

[3] = tested on: Chinese hamster ovary (CHO) cells; experiment: cytotoxicity against CHO cell line (Cell Titer Blue); type: cell-based; conditions: CHO-K1 cells, 24 hours incubation, percent cell kill
Method: The compounds of the present disclosure were tested for cytotoxicity against Chinese hamster ovary (CHO) cells.
The assay was performed by seeding CHO—K1 in F12K medium containing 13.33% Fetal Bovine Serum […]. 37.5 μl of cell suspension at a concentration of 9,500 cells/well was plated into each column of a 384-well black clear bottom assay plate with the exception of a negative (no cell) control column, and allowed to adhere for 2 hours. The culture media was then removed from the 175 cm^2 flask(s) and the cell monolayer washed with 10 mL of Phosphate Buffered Saline PBS. 3 mL of Cellstripper™ was then added and the flask was incubated for approximately 5 min at 37° C. The cells were dissociated by agitation and 7 mL of F 12K medium containing 10% FBS was added to the flask. A homogeneous cell suspension was obtained by trituration of the flask. The cells were counted with a hemocytometer by diluting an aliquot of the cell suspension in PBS with 0.4% trypan blue. Typically, a ratio of 100 μl cell suspension to 1800 μl PBS to 100 μl trypan blue was used.
The volume of cell suspension containing the number of cells needed to seed the plate(s) (15.2 mL containing 3.8×10^6 cells) was calculated and transferred to a 50 mL centrifuge tube with the appropriate volume of media. 37.5 μl of cells were added to each well of the 384 well plate except for the negative (no cell) control column. A cytotoxicity 100-fold dilution plate was then prepared by manually pipetting 18 μl of 100% DMSO into two columns of an empty low volume dilution plate. 2 μl of a 50 mM solution of compounds 1-23 from the translation plate were manually pipetted into the corresponding columns of the 100-fold dilution plate. 10 μl of 100% DMSO was manually pipetted into all remaining columns of the 100-fold plate.
A 4-fold cytotoxicity plate was prepared beforehand by manually pipetting 48 μl of F12K media (without DMSO and without FBS) into each well of a matrix 384 well plate. The test samples in the 100-fold dilution plate were mixed and diluted. Ten 2-fold dilutions were performed for each compound in duplicate. The 384 cannula array then transferred 2 μl to the 48 μl of media in the cytotoxicity 4-fold dilution plate. The array was then mixed and 12.5 μl of samples from the cytotoxicity 4-fold dilution plate were transferred to the 37.5 μl of cells and media. The final top concentration of samples at this point in the procedure was 50 μM with 10 subsequent 1:2 dilutions down to […]. The final DMSO concentration were 1% and the final concentration of FBS was 10%.
Cycloheximide was run as a control. Specifically, Cycloheximide was diluted to 0.1 mM from 100 mM stock […] and was added to the cytotoxicity 100-fold plate. Upon addition to the cell plate, a range of 1 μM to 1 nM of cycloheximide was run.
A column separate from the one (referred to above) that served as the negative control was used for cell control wells to which only media was added.
The plates were then incubated for 24 hours at 37° C. and 5% CO2. […] The two columns used earlier to prepare the 100-fold dilution plate by pipetting 18 μl of 100% DMSO contained the samples tested at 200 μM. After the 24 hour incubation period, the 4 μl of Cell Titer blue was added to each well using a Multichannel Matrix pipettor. The plates were returned to the incubator and incubated for an additional 5 hours. Fluorescence (530 nm excitation wavelength/590 nm emission wavelength) was measured on a Wallac Victor microplate reader.
Cell viability was assessed fluorometrically after a 5 hour incubation with resazurin (Cell Titer Blue™), which is reduced by living cells to the fluorescent resorufin.
The average fluorescence for the negative control was determined to obtain the average blank fluorescence. The average blank fluorescence was subtracted from the fluorescence values obtained for all the test agents. The resulting values are the corrected fluorescence. […]

E. coli DH10B recipient = experiment: CLSI broth microdilution MIC, E. coli DH10B recipient; type: cell-based
Method: (§3) Four compounds, including Compound No. 8 of the present application (RX-04D) were tested against (i) multiresistant Enterobacteriaceae and Acinetobacter with carbapenemases; (ii) Enterobacteriaceae with MCR-1; and (iii) P. aeruginosa with altered efflux (see Tables 4 and 5). In this case, MCR-1 is relevant because its activity reduces the negative charge of lipopolysaccharides, potentially affecting binding of poly-basic molecules such as the compounds tested herein, as well as polymyxins.
(§4) MICs of the four tested compounds and comparators (amikacin, cefepime, colistin, meropenem and tigecyline) were determined by CLSI broth microdilution using pre-prepared plates (Trek Diagnostic Systems) (CLSI Approved Standard M7-A10). Carbapenemase and mcr-1 genes were detected by PCR or sequencing. Efflux levels in P. aeruginosa isolates were inferred by interpretive reading of antibiogram data.

[4] = tested on: E. coli DH10B mcr-1 transformant; experiment: CLSI broth microdilution MIC, E. coli DH10B mcr-1 transformant; type: cell-based; conditions: E. coli DH10B MCR-1 Transformant
Method: as §3, §4

| Molecule | MIC [1] | MIC [2] | IC50 ([3]; Cricetulus griseus, 24 h) | MIC (E. coli DH10B recipient) | MIC [4] | MIC S. aureus [1] | MIC E.coli [2] | IC50 [3] |
| --- | --- | --- | --- | --- | --- | --- | --- | --- |
| N=C(CN)NCC[C@@H]1CCC[C@@H](c2ccc(-n3cc4cc(-c5cc(CCC[C@@H](N)C6CC6)cc(Cl)c5F)[nH]c4nc3=O)cc2)N1CCCF [Compound 45] | ≤ 16 µg/mL | ≤ 16 µg/mL | > 100 µM | – | – | – | – | – |
| C=C[C@H](N)CCCc1cc(-c2cc3cn(-c4ccc([C@@H]5CCC[C@@H](CCNC(=N)CN)N5CCCF)c(SC)c4)c(=O)nc3[nH]2)cc(C(F)(F)F)c1 [Compound 55] | ≤ 16 µg/mL | ≤ 16 µg/mL | > 100 µM | – | – | – | – | – |
| C=C[C@H](N)CCCc1cc(-c2cc3cn(-c4cc(F)c([C@@H]5CCC[C@@H](CCNC(=N)CN)N5CCCF)c(SC)c4)c(=O)nc3[nH]2)cc(C(F)(F)F)c1 [Compound 62] | ≤ 16 µg/mL | > 16 µg/mL | > 100 µM | – | – | – | – | – |
| COC[C@H](N)CCCc1cc(OC(F)(F)F)c(F)c(-c2cc3cn(-c4ccc([C@@H]5CCC[C@@H](CCNC(=N)CN)N5)cc4)c(=O)nc3[nH]2)c1 [Compound 11] | ≤ 16 µg/mL | ≤ 16 µg/mL | > 100 µM | – | – | – | – | – |
| colistin [reference compound] | – | – | – | 0.25 µg/mL | 4 µg/mL | – | – | – |
| C=C[C@H](CCNC(=N)CN1CCSCC1)NCc1ccc(-n2cc3cc(-c4cc(CCC[C@H](C)N)cc(Cl)c4F)[nH]c3nc2=O)cc1 [Compound 3] | ≤ 16 µg/mL | ≤ 16 µg/mL | > 100 µM | – | – | – | – | – |
| C=C[C@@H](CCNC(=N)CN1CCSCC1)NCc1ccc(-n2cc3cc(-c4cc(CCC[C@H](C)N)cc(Cl)c4F)[nH]c3nc2=O)cc1 [Compound 7] | ≤ 16 µg/mL | ≤ 16 µg/mL | > 100 µM | – | – | – | – | – |
| CSc1cc(-n2cc3cc(-c4cc(CCC[C@H](C)N)cc(C(F)(F)F)c4)[nH]c3nc2=O)ccc1[C@@H]1CCC[C@@H](CCNC(=N)CN)N1CCCF [Compound 22] | ≤ 16 µg/mL | ≤ 16 µg/mL | > 100 µM | – | – | – | – | – |
| C[C@H](N)CCCc1cc(Cl)c(F)c(-c2cc3cn(-c4ccc([C@@H]5CCC[C@@H](CCNC(=N)CN)N5)cc4)c(=O)nc3[nH]2)c1 [Compound 14] | – | – | – | – | – | + (the compound has an MIC value of 16 micrograms/mL or less) | + (the compound has an MIC value of 16 micrograms/mL or less) | > 100 µM |
| CSc1cc(-n2cc3cc(-c4cc(CCC[C@@H](N)C5CC5)cc(C(F)(F)F)c4)[nH]c3nc2=O)ccc1[C@@H]1CCC[C@@H](CCNC(=N)CN)N1CCCF [Compound 53] | ≤ 16 µg/mL | ≤ 16 µg/mL | > 100 µM | – | – | – | – | – |
| CN=C(CN)NCC[C@@H]1CCC[C@@H](c2ccc(-n3cc4cc(-c5cc(CCC[C@H](C)N)cc(Cl)c5F)[nH]c4nc3=O)cc2)N1 [Compound 18] | ≤ 16 µg/mL | ≤ 16 µg/mL | > 100 µM | – | – | – | – | – |
| CSc1cc(-n2cc3cc(-c4cc(CCC[C@@H](N)C5CC5)cc(Cl)c4F)[nH]c3nc2=O)cc(F)c1[C@@H]1CCC[C@@H](CCNC(=N)CN)N1CCCF [Compound 52] | ≤ 16 µg/mL | ≤ 16 µg/mL | 15.9 µM | – | – | – | – | – |
| N=C(CN)NCC[C@@H]1CCC[C@@H](c2ccc(-n3cc4cc(-c5cc(CCC[C@@H](N)CO)cc(Cl)c5F)[nH]c4nc3=O)cc2)N1 [Compound 16] | ≤ 16 µg/mL | ≤ 16 µg/mL | 50.9 µM | – | – | – | – | – |
| C=C[C@H](N)CCCc1cc(-c2cc3cn(-c4ccc([C@@H]5CCC[C@@H](CCNC(=N)CN)N5CCCF)c(F)c4)c(=O)nc3[nH]2)cc(C(F)(F)F)c1 [Compound 63] | ≤ 16 µg/mL | ≤ 16 µg/mL | > 100 µM | – | – | – | – | – |
| C=C[C@@H](CCNC(=N)CN1CC[C@H](F)C1)NCc1ccc(-n2cc3cc(-c4cc(CCC[C@H](C)N)cc(Cl)c4F)[nH]c3nc2=O)cc1 [Compound 5] | ≤ 16 µg/mL | ≤ 16 µg/mL | > 100 µM | – | – | – | – | – |
| CSc1cc(-n2cc3cc(-c4cc(CCC[C@H](C)N)cc(Cl)c4F)[nH]c3nc2=O)cc(F)c1[C@@H]1CCC[C@@H](CCNC(=N)CN)N1CCCF [Compound 50] | ≤ 16 µg/mL | ≤ 16 µg/mL | 10.1 µM | – | – | – | – | – |
| CSc1cc(-n2cc3cc(-c4cc(CCC[C@@H](N)C5CC5)cc(Cl)c4F)[nH]c3nc2=O)ccc1[C@@H]1CCC[C@@H](CCNC(=N)CN)N1CCCF [Compound 48] | ≤ 16 µg/mL | ≤ 16 µg/mL | 13.5 µM | – | – | – | – | – |
| CSC[C@H](N)CCCc1cc(Cl)c(F)c(-c2cc3cn(-c4ccc([C@@H]5CCC[C@@H](CCNC(=N)CN)N5)cc4)c(=O)nc3[nH]2)c1 [Compound 19] | ≤ 16 µg/mL | ≤ 16 µg/mL | > 100 µM | – | – | – | – | – |
| C=C[C@H](N)CCCc1cc(Cl)c(F)c(-c2cc3cn(-c4ccc([C@@H]5CCC[C@@H](CCNC(=N)CN)N5CCCF)c(SC)c4)c(=O)nc3[nH]2)c1 [Compound 61] | ≤ 16 µg/mL | ≤ 16 µg/mL | 13.6 µM | – | – | – | – | – |
| C[C@H](N)CCCc1cc(Cl)c(F)c(-c2cc3cn(-c4ccc([C@@H]5CCC[C@@H](CCNC(=N)[C@@H](C)N)N5)cc4)c(=O)nc3[nH]2)c1 [Compound 59] | ≤ 16 µg/mL | ≤ 16 µg/mL | > 100 µM | – | – | – | – | – |
| N=C(CN)NCC[C@@H]1CCC[C@@H](c2ccc(-n3cc4cc(-c5cc(CCC[C@@H](N)C6CC6)cc(Cl)c5F)[nH]c4nc3=O)cc2F)N1CCCF [Compound 47] | ≤ 16 µg/mL | ≤ 16 µg/mL | 50.5 µM | – | – | – | – | – |
| C[C@H](N)CCCc1cc(Cl)c(F)c(-c2cc3cn(-c4cc(F)c([C@@H]5CCC[C@@H](CCNC(=N)CN)N5)c(F)c4)c(=O)nc3[nH]2)c1 [Compound 15] | ≤ 16 µg/mL | ≤ 16 µg/mL | > 100 µM | – | – | – | – | – |
| C[C@H](N)CCCc1cc(Cl)c(F)c(-c2cc3cn(-c4ccc([C@@H]5CCC[C@@H](CCNC(=N)[C@H](C)N)N5)cc4)c(=O)nc3[nH]2)c1 [Compound 60] | ≤ 16 µg/mL | ≤ 16 µg/mL | > 100 µM | – | – | – | – | – |
